Molecules are shown by their SMILES. Several values for one entry are separate records, joined by “and”; a condition that tells them apart may be missing. Equal entries are not always repeated. Entries after “also recorded” stand apart in the source; their conditions may differ. Where two headings read alike, the source gives them in different places.

The results in this text go back to patent US20080313748A1, “Transgenic Non-Human Animals Comprising the Human Udp-Glucuronosyltransferase 1A (Ugt1a) Gene Locus and Methods of Using Them” (priority 2004, published 2008).

Series [1] deals with β-estradiol UGT activity. Description: β-estradiol UGT activity in intestinal microsomes from PCN and TCDD treated Tg-UGT1c mice. The series is classed as in vivo, mouse. Conditions: for Induction of β-estradiol glucuronidation: large intestine microsomes, Tg-UGT1c mice. The method, then: (§1) Microsomal Protein Isolation from Transgenic Mouse Tissues.
(§2) Reactions were terminated by the addition of 100 μl of methanol followed by centrifugation at top speed for 15 minutes. A 100 μl sample of the quenched reaction was spotted onto pre-adsorbent area of the TLC plate and develop in n-butanol/acetone/acetic acid/water (35:35:10:20) to achieve separation. ^14C-Labeled glucuronides were visualized with a STORM 820™ PhosphorImager (Molecular Dynamics/Amersham Biosciences). Silica gel in regions corresponding to the glucuronide bands were then scraped from the TLC plates, radioactivity measured by liquid scintillation counting, and specific catalytic activities were calculated in picomoles of glucuronide formed/mg of protein/min.
(§3) Values are the mean±S.E.M from triplicate experiments.

In a further series the test system is mouse Cyp3a11. Nature of the series: Cyp3a11 RT-PCR in primary hepatocytes from Tg-UGT1c mice. Conditions: primary hepatocytes treated with PCN.
The test system of series [2] is UGT1A gene transcripts (human UGT1 locus). Description: Isoform-specific RT-PCR of UGT1A gene transcripts in tissues of treated Tg-UGT1c mice. As to conditions: for UGT1A1 RNA induction / UGT1A4 RNA / UGT1A6 RNA induction / UGT1A gene transcript induction: RT-PCR; for UGT1A gene transcript induction: small and large intestine, i.p. 3 days. The series is classed as in vivo, mouse. Here is the method: Analysis of UGT1 gene expression patterns by reverse transcription-PCR: For RNA isolation from transgenic and wild type (WT) mouse tissues, the tissues from three animals were combined as described in the methods that outline the preparation of microsomal proteins. After pulverizing in liquid nitrogen, approximately 100 mg of tissue was homogenized in 1 ml of TRIzol™ solution, and the RNA extracted following the manufacturer's instructions. For each reverse transcription reaction, 2 μg of total RNA was denatured by heating and cDNA synthesized in 20 μl using the Omniscript RT™ kit (Qiagen) according to the manufacturer's instructions. From this reaction, 2 μl of the cDNA reaction was employed in each PCR reaction. Each PCR reaction contained 0.2 μM of mouse β-actin primers, 0.4 μM of each of the UGT1A specific oligonucleotide primer pair (11;15;50), and 15 μl HOTSTART MASTERMIX™ (Qiagen) in a 30 μl reaction. For UGT1A1, UGT1A3, UGT1A4, UGT1A5, UGT1A6, UGT1A7, UGT1A9 and UGT1A10 the polymerase was activated at 95° C. for 15 minutes followed by 30 cycles of 95° C. for 30 sec, 63° C. for 30 sec, and 72° C. for 45 sec, and a final extension at 72° C. for seven minutes. For UGT1A8 PCR amplification, the polymerase was activated at 95° C. for 15 min followed by 30 cycles of 95° C. for 30 sec, 58° C. for 30 sec, and 72° C. for 45 sec, and a final extension at 72° C. for seven minutes. Analysis of expressed RNA included an antisense oligonucleotide specific for the common region that encoded exon 2, while all of the sense primers encoded a highly specific segment of each exon 1 sequence that allowed for the unique identification of each UGT1A RNA. PCR reactions were carried out in a PerkinElmer Life Sciences GENEAMP™ DNA thermocycler PCR system. Ten microliters of each PCR product was resolved on a 1.5% agarose gel containing 1 μg/ml ethidium bromide and photographed using Polaroid 665 positive/negative film (Polaroid, Cambridge, Mass.).
(§4) For both TCDD and PCN, the administration was by the intraperitoneal route, and each mouse was treated every 24 hours over a three day period. Tissues from three mice were then pooled and pulverized under liquid nitrogen, and samples used for microsomal preparation as well as for the isolation of total RNA.
(§5) Three Tg-UGT^1c or wild type (WT) mice were treated by intraperitoneal injection every 24 hours with either DMSO, TCDD (16 μg/kg) or PCN (10 mg/kg) for 3 days. After 72 hours, the small intestines from each treatment group were combined and the large intestines from each treatment group were combined and the tissues pulverized under liquid nitrogen. A sample of each tissue was then used to prepare microsomes or to isolate total RNA. FIG. 4A: Western blot analysis of small and large intestinal microsomal protein using UGT1A1-, UGT1A4- or UGT1A6 specific antibodies. Included as control is a sample of each protein generated from the expression of cDNAs in stably transfected HEK293 cells. FIG. 4B: RNA prepared from the same samples of tissue were used in RT-PCR studies and the isoform specific products identified in ethidium bromide stained agarose gels.
Induction of the UGT1 locus in liver by PCN and TCDD. […] Wild type and Tg-UGT^1c mice were treated every 24 hours with TCDD (16 μg/kg) or PCN (10 mg/kg) by intraperitoneal injection for 3 days, and the livers from three animals per group combined and used to prepare microsomes or to isolate total RNA. FIG. 6A: Samples of liver microsomal protein (10 μg) was separated by SDS-polyacrylamide gel electrophoresis, and immunoblot analysis performed using UGT1A1-, UGT1A4 or UGT1A6-antibodies. FIG. 6B: Total liver RNA (4 μg) was used in reverse transcription reactions followed by PCR analysis using isozyme-specific oligonucleotides.

The test system of a further series is UGT1A1. The method, then: (§6) Immunoblot Analysis. All Western blots were performed using NuPAGE Bis-Tris polyacrylamide gels as outlined by the supplier (Invitrogen, Carlsbad, Calif.). Protein was heated at 70° C. for 10 min in loading buffer and resolved in 4-12% Bis-Tris gels under denaturing conditions (50 mM MOPS, 50 mM Tris-base, pH 7.7, 0.1% SDS, 1 mM EDTA) prior to transferring the proteins to polyvinylidene difluoride membrane using a semidry transfer system (Norvex, England). The membrane was blocked with 5% nonfat dry milk in 10 mM Tris-HCl, pH7.4 containing 0.15 M NaCl and 0.05% Tween 20 (Tris-buffered saline) for 1 h at room temperature, followed by incubation with primary antibodies (mouse anti-human UGT1A1, UGT1A4 or UGT1A6) in Tris-buffered saline overnight at 4° C. Membranes were washed and exposed to horseradish peroxidase-conjugated secondary antibodies for 1 h at room temperature. Each membrane was again washed and the conjugated horseradish peroxidase was detected using the ECL plus Western blotting detection system (Amersham) and the proteins detected following exposure to X-ray film.

The subject of another series is human UGT1A4. As to conditions: for UGT1A4 protein induction: small and large intestine.
Excerpt: (§7) Microsomal Protein Isolation from Transgenic Mouse Tissues. Using three animals per group, the liver, small and large intestinal tissues were collected from Tg-UGT1 and wild type mice. For the small and large intestine, the tissue was dissected open lengthwise and the luminal surface gently rinsed in 1.15% KCl before freezing on dry ice. Tissue samples from each treatment group were combined and frozen in liquid nitrogen in a porcelain mortar and pulverized under liquid nitrogen. A sample of the pulverized tissue was added to 5 volumes of 1.15% ice cold KCl and the tissue homogenized using a motorized glass-teflon homogenizer. The tissue homogenate was first centrifuged at 2,000×g for 10 min at 4° C. and the supernatant was collected. The supernatant was then centrifuged at 9,000×g for 10 min at 4° C. and this resulting supernatant centrifuged at 100,000×g for 60 min at 4° C. The pellet was resuspended in buffer (50 mM Tris-HCl pH 7.4, 10 mM MgCl2, 1 mM PMSF) and the protein concentration determined by the Bradford method.
as §6, §4, §5
(§8) Induction of the UGT1 locus in liver by PCN and TCDD. […] Wild type and Tg-UGT^1c mice were treated every 24 hours with TCDD (16 μg/kg) or PCN (10 mg/kg) by intraperitoneal injection for 3 days, and the livers from three animals per group combined and used to prepare microsomes or to isolate total RNA.

Another series deals with human UGT1A6. As to conditions: for UGT1A6 protein regulation: small and large intestine.
Excerpt: as §7, §6, §4, §5, §8

A further series concerns human UGT1A1. Conditions: for UGT1A1 protein induction: small and large intestinal microsomes, TCDD 16 μg/kg or PCN.
Excerpt: as §7, §6, §4, §5, §8

The test system of series [3] is β-estradiol UGT activity. Description: β-estradiol UGT activity in intestinal microsomes from PCN treated wild type mice. The series is classed as in vivo, mouse. Conditions: WT mice. The method, then:
as §1, §2, §3

The subject of a further series is mouse Cyp1a1. Description: Cyp1a1 Western blot in primary hepatocytes from Tg-UGT1c mice. The series is classed as cell-based. The source says:
Isolation and treatment of mouse transgenic primary hepatocytes. […] Mice were anesthetized by isoflurane inhalation.
Control hepatocyte cultures contained only DMSO (D).
For orientation: A western blot detects proteins with antibodies after separation by electrophoresis.

In series [4] the test system is UGT1A gene transcripts (human UGT1 locus). Nature of the series: Isoform-specific RT-PCR of UGT1A gene transcripts in tissues of treated Tg-UGT1c mice. The series is classed as in vivo, mouse. Conditions: liver and small intestine, UGT1+/- mice treated with TCDD.
[5] abbreviates: Tg-UGT1c mice, i.p. every 24 h for 3 days.
Where [6] appears, read: liver microsomes, Tg-UGT1c mice, i.p. every 24 h for 3 days.

Turning to `CC(=O)[C@H]1[C@H](C#N)C[C@H]2[C@@H]3CC=C4C[C@@H](O)CC[C@]4(C)[C@H]3CC[C@@]21C` [PCN, Pregnenolone-16α-carbonitrile], in the series on β-estradiol UGT activity [1], the “Induction of β-estradiol glucuronidation” value is listed as “induced β-estradiol glucuronidation significantly”. The “β-estradiol glucuronidation activity, induced level over induced level in WT mice” value in the series with β-estradiol UGT activity [1] (small intestine microsomes, PCN treated Tg-UGT1c mice vs PCN treated WT mice) is given as ~10 fold. Besides, the “Cyp3a11 mRNA induction” value with mouse Cyp3a11 was “induction”. In [2] (liver, Tg-UGT1c mice), the “UGT1A1 RNA induction” value is recorded as “significant induction”; the “UGT1A4 RNA” value is “increase”; the “UGT1A6 RNA induction” value is on record as “induced”; the “Expression of UGT1A1, UGT1A3, UGT1A4, UGT1A6 and UGT1A9 gene transcripts” value is listed as “induce expression of each of these genes”. Besides, the “UGT1A gene transcript induction” value in series [2] (Tg-UGT1c mice) is recorded as “induction of all of the UGT1A gene transcripts”. In addition, in the series on UGT1A1, the “UGT1A1 induction, hepatocytes cultured in dexamethasone” value is “significant induction”. The “Microsomal UGT1A4 protein induction” value in the series with human UGT1A4 (mouse, in vivo, ip) was “induction”. For the same compound, the UGT1A4 protein induction result with human UGT1A4 (setting [5]) is “inducible in small and large intestine”. The “Microsomal UGT1A6 protein induction” value in the series with human UGT1A6 (mouse, in vivo, ip) was “induction”. The UGT1A6 protein regulation result in the series on human UGT1A6 (setting [5]) was “predominantly regulated only in large intestine”. The “Microsomal UGT1A1 protein induction” value in the series on human UGT1A1 (mouse, in vivo, ip) is “induction”. The UGT1A1 protein induction result in the series on human UGT1A1 (setting [5]) was “inducible”. In addition, in the series with β-estradiol UGT activity [3] (large intestine microsomes), the “Induction of β-estradiol glucuronidation” value is recorded as “induced β-estradiol glucuronidation significantly”. The “Induction of UGT activity (β-estradiol)” value with β-estradiol UGT activity [3] (small intestine microsomes) was “induced a minimal amount of UGT activity”.
As to `Clc1cc2c(cc1Cl)Oc1cc(Cl)c(Cl)cc1O2` [TCDD, 2,3,7,8-Tetrachlorodibenzo-p-dioxin], in the series with mouse Cyp1a1 (TCDD 72 hours), the “Mouse Cyp1a1 induction” value was “induction”. Besides, in the series on mouse Cyp1a1 (TCDD with 0.1 μM dexamethasone), the “Synergistic induction of Cyp1a1 in presence of glucocorticoids” value is “did not observe a synergistic induction”. Further, in the series on β-estradiol UGT activity [1], the “Induction of β-estradiol glucuronidation” value is given as “most significant induction”. Also, in series [2] (liver, Tg-UGT1c mice), the “UGT1A1 RNA induction” value was “significant induction”; the “UGT1A4 RNA” value is on record as “increase”; the “UGT1A6 RNA induction” value is recorded as “induced”; the “Expression of UGT1A1, UGT1A3, UGT1A4, UGT1A6 and UGT1A9 gene transcripts” value is “induce expression of each of these genes”. In addition, in series [2] (liver, Tg-UGT1c mice), the UGT1A10 induction entry is listed as “induce; also recorded: significantly induced”. Besides, the “Regulation of UGT1A5, UGT1A7 and UGT1A8” value in [2] (liver, Tg-UGT1 mice) is recorded as “not regulated”. The “UGT1A gene transcript induction” value in [2] (Tg-UGT1c mice) is “induction of all of the UGT1A gene transcripts”. Besides, the “UGT1A1 induction in presence of dexamethasone over the levels obtained only with TCDD treatment” value in the series with UGT1A1 (primary hepatocytes cultured in 0.1 μM dexamethasone and treated with TCDD) was 10 fold and > 10 fold. Also, in the series with UGT1A1 (primary hepatocytes, compound alone, TCDD 10 nM 72 hours, PCN 10 μM, dexamethasone 0.1 μM), the UGT1A1 induction result is listed as “induction”. The “Microsomal UGT1A4 protein induction” value in the series on human UGT1A4 (setting [6]) is recorded as “induction”. Further, the UGT1A4 protein induction entry in the series with human UGT1A4 (setting [5]) is “inducible in small and large intestine”. The “Microsomal UGT1A6 protein induction” value in the series on human UGT1A6 (setting [6]) was “induction”. Moreover, the UGT1A6 protein regulation entry in the series on human UGT1A6 (setting [5]) is on record as “predominantly regulated only in large intestine”. Also, in the series on human UGT1A1 (setting [6]), the “Microsomal UGT1A1 protein induction” value was “induction”. Also, the UGT1A1 protein induction result with human UGT1A1 (setting [5]) is on record as “inducible”. Further, the “Expression of 1A1 and 1A6” value in [4] was “elevated expression”.
